In one series the target is T1, 26S proteasome (Homo sapiens, UniProt P54578+Q9Y5K5).
T1 construct: purchased Boston Biochem E-365
Nature of the series: DUB inhibition assay, 26S proteasomes with ubiquitin-AMC. Type of series: biochemical. To be noted: Ub-AMC.

Series [1] can be described thus: Animal weight and side effects in treated tumor-bearing mice. Type of series: in vivo. As to the method:
In order to investigate the effect of b-AP15 on tumor growth in vivo, the compound was administered to mice bearing either a human tumor or mouse xenografts. FaDu head and neck carcinoma were chosen as a SCID mouse xenograft both as a model for a p53mut tumor and since this model is suitable for studies using circulating cell death biomarkers (30). Significant inhibition of FaDu tumor growth was observed following daily treatment with b-AP15 (treated/control tumor volume, T/C=0.4, p=<0.001). Similarly b-AP15 (day on/2 day off schedule) inhibited tumor growth in C57BL/6J mice bearing lung carcinomas (T/C=0.16, p=<0.01). […] To examine whether b-AP15 promotes tumor cell death in vivo, plasma levels of cytokeratin-18 (CK18) were analyzed. […] To investigate the ability of b-AP15 to inhibit proteasome deubiquitination in vivo, accumulation of poly-ubiquitin conjugates was analyzed by means of antibodies specific for K48 linked polyubiquitin chains. Histological analysis of treated tumors confirmed the accumulation of poly-ubiquitin conjugates.
Animal experiments were conducted in full accordance with Swedish governmental statutory regulations on animal welfare under permission from local ethical committees. Animals were housed at a max of five per cage and provided with sterile water and food ad libitum. All mice were monitored and weighed daily. For the head and neck carcinoma model a 100-μl cell suspension containing 1×10^6 FaDu cells was injected subcutaneously into the right rear flank of the animals. After injection, tumor growth was measured daily with calipers and the tumor volume calculated by the formula […]. When tumors had grown to a size of approximately 200 mm^3 (Day 0) mice were randomized to receive either vehicle (n=10) or b-AP15 5 mg/kg^−1 by subcutaneous injection s.c. (n=15) daily. For the colon carcinoma model, 2.5×10^6 HCT-116 colon carcinoma cells stably transfected with Bcl-2 (HCT-116^Bcl-2+) were inoculated subcutaneously into the right flank of nude mice. One day after inoculation mice were treated with 5 mg/kg^−1 by intra peritoneal injection (i.p.). Animals were inspected daily to establish the tumor onset and growth. For the lung carcinoma model a 100-μl cell suspension containing 2×10^5 Lewis Lung Carcinoma (LLC) cells was injected subcutaneously into the right rear flank of C57/B6 mice. When tumors had grown to a size of approximately 50 mm^3 (Day 0) mice were randomized to receive either vehicle (n=4) or b-AP15 5 mg/kg^−1 i.p. (n=4) with a treatment cycle consisting of two days treatment followed by two days no treatment (2 days on/2 days off) for two weeks. For the breast carcinoma model a 100-μl cell suspension containing 1×10^5 […] was injected subcutaneously into the right mammary fat pad of BALB/c mice. When tumors had grown to a size approximately 25 mm^3 (Day 0), mice were randomized to receive either vehicle (n=5) or b-AP15 2.5 mg/kg^−1 i.p. (n=5) with a treatment cycle consisting of one days treatment followed by three days no treatment (1 day on/3 days off) for 3 weeks. In the AML studies female C57BL/6J mice were injected i.v. in the tail vein with 5×10^5 C1498 AML cells. After eight days mice were randomized to receive either b-AP15 5 mg/kg^−1 (n=10) or vehicle (n=10) i.p. for 7 days (day +8 till +14). Nineteen days after malignant cell injection all of the mice were killed and histopathological manifestations of liver, ovary (target organs for this model of tumor) were evaluated and compared between groups. […]

A further series addresses T2, 19S RP (Homo sapiens, UniProt P54578+Q9Y5K5).
T2 construct: purchased Boston Biochem E-366
The experiment in a line: Ub-GFP cleavage assay with 19S RP. Type of series: biochemical. As to the method: To this end the ability of b-AP15 to inhibit cleavage of recombinant ubiquitin-GFP was assessed. Recombinant ubiquitin-GFP is a substrate for 19S RP DUB activity (22). […] The type of ubiquitin bonds present in the polyubiquitin chain determines the fate of an ubiquitin-modified substrate. K48 linked polyubiquitin chains generally targets conjoined proteins for degradation (23), whereas K63 linked chains are involved in non-proteolytic roles including DNA repair (24) and mitotic chromosome segregation (25). […] The inhibition of ubiquitin chain disassembly observed could account for the accumulation of high molecular weight ubiquitin conjugates in b-AP15 treated cells.
The recombinant Ub-GFP plasmid pet19b Ub-M-GFP was generated as described (42). In brief recombinant Ub-GFP was purified from BL21 E. coli cells by His affinity purification. For cleavage assays 19S RP (25 nM) was incubated with 10 mM NEM, 250 μM TPEN or 50 μM b-AP15 for 10 min followed by the addition of recombinant Ub-GFP (200 nM). […] The level of Ub-GFP cleavage or ubiquitin disassembly was determined by immunoblotting with anti ubiquitin antibodies. […] The cleavage of ubiquitinated Hdm2 substrate and ubiquitinated Hdm2 was determined by immunoblotting with anti-Hdm2 antibodies. […]

The values that follow come from patent publication US9856511B2, “Protease deubiquitinating inhibitor screening” (priority 2011, dated 2018).

A value given as a limit tells only on which side of the number the result lay.

For `C=CC(=O)N1C/C(=C\c2ccc([N+](=O)[O-])cc2)C(=O)/C(=C/c2ccc([N+](=O)[O-])cc2)C1` [b-AP15], at 26S proteasome, the “inhibition of deubiquitinating activity of 26S proteasome” value is recorded as “inhibits the deubiquitinating activity”. For the same compound, the “difference in weight at start and endpoint between control and treated animals” value in series [1] (4T1) is given as “+5.8%”; in series [1] (FaDu xenograft) it was −1.3%; in series [1] (LLC), “+2.1%”. For the same compound, the adverse side effects entry in series [1] (b-AP15 treated group) was “No adverse side effects were observed”. For the same compound, in series [1] (b-AP15 treated group), the “average weight loss at the conclusion of the study” value was below 5%. Moreover, the “cleavage of Ub-GFP by 19S RP” value on 19S RP is listed as “effectively inhibited”.
